Reference: publication PMC11844072, “Novel 5,6-dichlorobenzimidazole derivatives as dual BRAFWT and BRAFV600E inhibitors: design, synthesis, anti-cancer activity and molecular dynamics simulations” (BMC Chemistry, 2025)

Key:
Assay in all cases: NCI 5-dose assay
Type in all cases: cell-based
A498 = conditions: Homo sapiens; A498, Renal cancer
Experimental: (§1) The synthesized dichlorobenzimidazoles 10a–p were assayed for their influence on divers cancer cell lines according to the method presented in the Additional file A.
(§2) 5. Screening of cytotoxic activity against a panel of sixty human tumor cell lines
(§3) The selected compounds by NCI were evaluated for their anticancer activity in a two-stage process. First, these compounds were screened against the full NCI 60 cell lines panel at a single high dose of 10 µM. Then, the output from the single dose screen is reported as a mean graph. […]
(§4) at five different minimal concentrations.
(§5) Assay protocol. The human tumor cell lines of the cancer screening panel are grown in RPMI 1640 medium containing 5% fetal bovine serum and 2 mM L-glutamine. For a typical screening experiment, cells are inoculated into 96 well microtiter plates in 100 µL at plating densities ranging from 5000 to 40,000 cells/well depending on the doubling time of individual cell lines. After cell inoculation, the microtiter plates are incubated at 37 °C, 5% CO 2, 95% air and 100% relative humidity for 24 h prior to addition of the experimental drugs.
(§6) After 24 h, two plates of each cell line are fixed in situ with TCA, to represent a measurement of the cell population for each cell line at the time of drug addition (Tz). The experimental drugs are solubilized in dimethyl sulfoxide at 400-fold the desired final maximum test concentration and stored frozen prior to use. At the time of drug addition, an aliquot of frozen concentrate is thawed and diluted to twice the desired final maximum test concentration with complete medium containing 50 µg/mL gentamicin. Additional four, 10-fold or ½ log serial dilutions are made to provide a total of five drug concentrations plus control.
(§7) Aliquots of […] of these different drug dilutions are added to the appropriate microtiter wells already containing […] of medium, resulting in the required final drug concentrations.
(§8) Following drug addition, the plates are incubated for an additional 48 h at 37 °C, 5% CO 2, 95% air, and 100% relative humidity. For adherent cells, the assay is terminated by the addition of cold TCA.
(§9) Cells are fixed in situ by the gentle addition of 50 µL of cold 50% (w/v) TCA (final concentration, 10% TCA) and incubated for 60 min at 4 °C. The supernatant is discarded, and the plates are washed five times with tap water and air dried. Sulforhodamine B (SRB) solution ([…]) at 0.4% (w/v) in 1% acetic acid is added to each well, and plates are incubated for 10 min at room temperature. After staining, unbound dye is removed by washing five times with 1% acetic acid and the plates are air dried. Bound stain is subsequently solubilized with 10 mM trizma base, and the absorbance is read on an automated plate reader at a wavelength of 515 nm. For suspension cells, the methodology is […]
(§10) the same except that the assay is terminated by fixing settled cells at the bottom of the wells by gently adding 50 µl of 80% TCA (final concentration, 16% TCA). Using the seven absorbance measurements [time zero, (Tz), control growth, (C), and test growth in the presence of drug at the five concentration levels (Ti)], the percentage growth is calculated at each of the drug concentrations […]
(§11) Percentage growth inhibition is calculated as: [(Ti Tz)/(C–Tz)] x 100 for concentrations for which Ti>/=Tz and [(Ti-Tz)/Tz] x 100 for concentrations for which Ti < Tz.
(§12) Three dose response parameters are calculated for each experimental agent. Growth […]
(§13) concentration resulting in a 50% reduction in the net protein increase (as measured by SRB staining) in control cells during the drug incubation. The drug concentration resulting in total growth inhibition (TGI) is calculated from Ti = Tz. […]
(§14) reduction in the measured protein at the end of the drug treatment as compared to that at the beginning) indicating a net loss of cells following treatment is calculated from [(Ti–Tz)/Tz] x 100 =
(§15) _50. Values are calculated for each of these three parameters if the level of activity is reached; […]

ACHN = conditions: Homo sapiens, Renal cancer
Experimental: as §1, §2, §3, §4, §5, §6, §7, §8, §9, §10, §11, §12, §13, §14, §15

CAKI-1 = conditions: Homo sapiens; CAKI-1, Renal cancer
Experimental: as §1, §2, §3, §4, §5, §6, §7, §8, §9, §10, §11, §12, §13, §14, §15

DU-145 = conditions: Homo sapiens; DU-145, Prostate cancer
Experimental: as §1, §2, §3, §4, §5, §6, §7, §8, §9, §10, §11, §12, §13, §14, §15

EKVX = conditions: Homo sapiens, Non-small cell lung cancer
Experimental: as §1, §2, §3, §4, §5, §6, §7, §8, §9, §10, §11, §12, §13, §14, §15

HS 578T = conditions: Homo sapiens, Breast cancer
Experimental: as §1, §2, §3, §4, §5, §6, §7, §8, §9, §10, §11, §12, §13, §14, §15

IGROV1 = conditions: Homo sapiens, IGROV-1; IGROV1, Ovarian cancer
Experimental: as §1, §2, §3, §4, §5, §6, §7, §8, §9, §10, §11, §12, §13, §14, §15

K-562 = conditions: Homo sapiens, K562; K-562, Leukemia
Experimental: as §1, §2, §3, §4, §5, §6, §7, §8, §9, §10, §11, §12, §13, §14, §15

M14 = conditions: Homo sapiens; M14, Melanoma
Experimental: as §1, §2, §3, §4, §5, §6, §7, §8, §9, §10, §11, §12, §13, §14, §15

MCF7 = conditions: Homo sapiens; MCF7, Breast cancer
Experimental: as §1, §2, §3, §4, §5, §6, §7, §8, §9, §10, §11, §12, §13, §14, §15

MDA-MB-468 = conditions: Homo sapiens; MDA-MB-468, Breast cancer
Experimental: as §1, §2, §3, §4, §5, §6, §7, §8, §9, §10, §11, §12, §13, §14, §15

MOLT-4 = conditions: Homo sapiens; MOLT-4, Leukemia
Experimental: as §1, §2, §3, §4, §5, §6, §7, §8, §9, §10, §11, §12, §13, §14, §15

NCI-H322M = conditions: Homo sapiens, Non-small cell lung cancer
Experimental: as §1, §2, §3, §4, §5, §6, §7, §8, §9, §10, §11, §12, §13, §14, §15

RPMI-8226 = conditions: Homo sapiens; RPMI-8226, Leukemia
Experimental: as §1, §2, §3, §4, §5, §6, §7, §8, §9, §10, §11, §12, §13, §14, §15

RXF 393 = conditions: Homo sapiens; RXF 393, Renal cancer
Experimental: as §1, §2, §3, §4, §5, §6, §7, §8, §9, §10, §11, §12, §13, §14, §15

SF-539 = conditions: Homo sapiens; SF-539, CNS cancer
Experimental: as §1, §2, §3, §4, §5, §6, §7, §8, §9, §10, §11, §12, §13, §14, §15

SK-MEL-2 = conditions: Homo sapiens; SK-MEL-2, Melanoma
Experimental: as §1, §2, §3, §4, §5, §6, §7, §8, §9, §10, §11, §12, §13, §14, §15

SK-MEL-5 = conditions: Homo sapiens; SK-MEL-5, Melanoma
Experimental: as §1, §2, §3, §4, §5, §6, §7, §8, §9, §10, §11, §12, §13, §14, §15

SR = conditions: Homo sapiens, Leukemia
Experimental: as §1, §2, §3, §4, §5, §6, §7, §8, §9, §10, §11, §12, §13, §14, §15

T-47D = conditions: Homo sapiens, T47D, Breast cancer
Experimental: as §1, §2, §3, §4, §5, §6, §7, §8, §9, §10, §11, §12, §13, §14, §15

U251 = conditions: Homo sapiens, U-251; U251, CNS cancer
Experimental: as §1, §2, §3, §4, §5, §6, §7, §8, §9, §10, §11, §12, §13, §14, §15

UACC-257 = conditions: Homo sapiens; UACC-257, Melanoma
Experimental: as §1, §2, §3, §4, §5, §6, §7, §8, §9, §10, §11, §12, §13, §14, §15

UO-31 = conditions: Homo sapiens; UO-31, Renal cancer
Experimental: as §1, §2, §3, §4, §5, §6, §7, §8, §9, §10, §11, §12, §13, §14, §15

Structure (SMILES)	GI50 (A498) [µM]	GI50 (ACHN) [µM]	GI50 (CAKI-1) [µM]	GI50 (DU-145) [µM]	GI50 (EKVX) [µM]	GI50 (HS 578T) [µM]	GI50 (IGROV1) [µM]	GI50 (K-562) [µM]	GI50 (M14) [µM]	GI50 (MCF7) [µM]	GI50 (MDA-MB-468) [µM]	GI50 (MOLT-4) [µM]	GI50 (NCI-H322M) [µM]	GI50 (RPMI-8226) [µM]	GI50 (RXF 393) [µM]	GI50 (SF-539) [µM]	GI50 (SK-MEL-2) [µM]	GI50 (SK-MEL-5) [µM]	GI50 (SR) [µM]	GI50 (T-47D) [µM]	further results
COC(=O)COc1ccc(C=NNC(=O)Cn2c(-c3ccc(OC)cc3)nc3cc(Cl)c(Cl)cc32)cc1 [Compound 10h, Methyl-2-(4-((2-(2-(5,6-dichloro-2-(4-methoxyphenyl)-1H-benzo[d]imidazol-1-yl)acetyl)hydrazono)methyl)phenoxy)acetate]	15.4	7.84	5.74	1.67	18.8	10.1	4.06	11.3	17.5	4.25	1.68	5.36	21.3	71.2	2.85	10.7	10.5	80.9	2.8	2.68	GI50 (U251): 14.1 µM; GI50 (UACC-257): 12.7 µM; GI50 (UO-31): 9.74 µM
COC(=O)COc1cc(C=NNC(=O)Cn2c(-c3ccc(OC)cc3)nc3cc(Cl)c(Cl)cc32)ccc1OC [Compound 10o, Methyl-2-(5-((2-(2-(5,6-dichloro-2-(4-methoxyphenyl)-1H-benzo[d]imidazol-1-yl)acetyl)hydrazono)methyl)-2-methoxyphenoxy)acetate]	> 100	14.2	15.3	4.79	89.2	2.68	14.7	> 100	> 100	100	4.4	14.2	60.4	> 100	11	5.28	21.6	> 100	3	12.7	GI50 (U251): > 100 µM; GI50 (UACC-257): 38.7 µM; GI50 (UO-31): 1.82 µM
COC(=O)COc1ccc(C=NNC(=O)Cn2c(-c3ccc(OC)cc3)nc3cc(Cl)c(Cl)cc32)cc1OC [Compound 10p, Methyl-2-(4-((2-(2-(5,6-dichloro-2-(4-methoxyphenyl)-1H-benzo[d]imidazol-1-yl)acetyl)hydrazono)methyl)-2-methoxyphenoxy)acetate]	11.6	5.42	2.77	1.9	18.9	4.34	3.6	> 72.5	> 72.5	> 72.5	1.48	> 72.5	22.2	> 72.5	1.43	7.52	10	> 72.5	2.15	4.47	GI50 (U251): > 72.5 µM; GI50 (UACC-257): 14.7 µM; GI50 (UO-31): 8.11 µM
